pIC50, pKi: −log10 of the molar value.
Key:
[1] = target: Fibroblast growth factor receptor (Homo sapiens, UniProt P22607+P11362+P22455+P21802); experiment: Inhibition of human recombinant FGFR by FRET assay; format: protein assay
Focal adhesion kinase 1 [2] = target: T1, Focal adhesion kinase 1 (Homo sapiens, UniProt Q05397); experiment: Inhibition of N-terminal his-tagged human (1 to 422 residues) FAK
[3] = target: Protein cereblon/Focal adhesion kinase 1 (Homo sapiens, UniProt Q05397+Q96SW2); experiment: PROTAC activity at CRBN/FAK in human PC3 cells assessed as protein degradation incubated for 12 hrs by Western blot analysis relative to control; format: cell-based; conditions: pc-3
Focal adhesion kinase 1 [4] = target: T1, Focal adhesion kinase 1; experiment: Inhibition of FAK (unknown origin)
[5] = Oral bioavailability in mouse; format: ADME, organism-based; conditions: in vivo
Focal adhesion kinase 1 [6] = target: T1, Focal adhesion kinase 1; experiment: Inhibition of FAK (unknown origin) by ADP-Glo kinase assay
[7] = target: Epidermal growth factor receptor (Homo sapiens, UniProt P00533, T790M); experiment: Inhibition of EGFR T790M mutant (unknown origin)
Focal adhesion kinase 1 [8] = target: T1, Focal adhesion kinase 1; experiment: Inhibition of human FAK by FRET assay
[9] = Plasma stability in human assessed as half life by LC-MS/MS analysis; format: ADME, cell-free
[10] = target: Serine/threonine-protein kinase PLK1 (Homo sapiens, UniProt P53350); experiment: Inhibition of PLK1 (unknown origin)
Focal adhesion kinase 1 [11] = target: T1, Focal adhesion kinase 1; experiment: Inhibition of FAK (unknown origin) by FRET analysis
[12] = target: T2, Protein deacetylase HDAC6 (Homo sapiens, UniProt Q9UBN7); experiment: Inhibition of HDAC6 (unknown origin)
T2 sequence (Q9UBN7 whole entry): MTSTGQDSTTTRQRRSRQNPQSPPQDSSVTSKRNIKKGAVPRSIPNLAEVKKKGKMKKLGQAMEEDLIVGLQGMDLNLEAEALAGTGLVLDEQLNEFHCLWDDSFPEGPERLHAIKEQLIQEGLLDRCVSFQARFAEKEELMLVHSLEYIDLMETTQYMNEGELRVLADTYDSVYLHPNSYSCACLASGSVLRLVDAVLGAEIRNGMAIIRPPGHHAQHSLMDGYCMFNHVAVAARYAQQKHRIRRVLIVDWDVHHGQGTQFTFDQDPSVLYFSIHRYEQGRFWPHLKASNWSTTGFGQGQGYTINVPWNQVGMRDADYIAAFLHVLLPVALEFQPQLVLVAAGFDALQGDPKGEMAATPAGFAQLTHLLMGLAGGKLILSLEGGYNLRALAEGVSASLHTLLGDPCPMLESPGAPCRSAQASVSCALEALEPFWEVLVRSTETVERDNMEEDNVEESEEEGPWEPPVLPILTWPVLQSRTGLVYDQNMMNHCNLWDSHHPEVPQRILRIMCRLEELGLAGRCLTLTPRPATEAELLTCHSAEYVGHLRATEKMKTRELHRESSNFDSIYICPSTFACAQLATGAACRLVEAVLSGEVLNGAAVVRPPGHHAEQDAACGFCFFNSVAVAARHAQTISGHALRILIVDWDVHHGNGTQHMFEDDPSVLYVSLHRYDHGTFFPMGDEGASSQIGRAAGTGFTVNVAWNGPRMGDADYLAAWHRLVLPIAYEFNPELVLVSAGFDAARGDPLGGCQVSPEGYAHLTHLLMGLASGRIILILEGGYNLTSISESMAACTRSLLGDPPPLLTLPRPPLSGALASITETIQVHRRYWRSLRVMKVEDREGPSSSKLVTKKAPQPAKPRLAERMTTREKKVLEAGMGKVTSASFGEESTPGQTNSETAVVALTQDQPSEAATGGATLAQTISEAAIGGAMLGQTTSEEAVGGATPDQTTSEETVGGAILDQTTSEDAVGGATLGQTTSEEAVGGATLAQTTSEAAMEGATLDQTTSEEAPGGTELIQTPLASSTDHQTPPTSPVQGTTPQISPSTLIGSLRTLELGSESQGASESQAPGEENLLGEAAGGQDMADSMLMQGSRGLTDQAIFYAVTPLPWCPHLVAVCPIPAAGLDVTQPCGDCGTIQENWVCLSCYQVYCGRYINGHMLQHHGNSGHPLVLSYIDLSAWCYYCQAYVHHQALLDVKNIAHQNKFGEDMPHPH

BXPC-3 = experiment: Antiproliferative activity against human BXPC-3 cells; format: functional, cell-based
[13] = target: T3, Protein-tyrosine kinase 2-beta (Homo sapiens, UniProt Q14289); experiment: Inhibition of PYK2 (unknown origin) by KinomeScan assay
Focal adhesion kinase 1 [14] = target: T1, Focal adhesion kinase 1; experiment: Inhibition of FAK (unknown origin) by HTRF assay
[15] = target: ALK tyrosine kinase receptor (Homo sapiens, UniProt Q9UM73); experiment: Inhibition of ALK (unknown origin)
[16] = target: Proto-oncogene tyrosine-protein kinase ROS (Homo sapiens, UniProt P08922); experiment: Inhibition of ROS1 (unknown origin)
[17] = target: T3, Protein-tyrosine kinase 2-beta; experiment: Inhibition of PYK2 (unknown origin)
Focal adhesion kinase 1 [18] = target: T1, Focal adhesion kinase 1; experiment: Binding affinity to FAK (unknown origin) assessed as inhibition constant

T1 sequence (Q05397 whole entry, the tested form may be a part): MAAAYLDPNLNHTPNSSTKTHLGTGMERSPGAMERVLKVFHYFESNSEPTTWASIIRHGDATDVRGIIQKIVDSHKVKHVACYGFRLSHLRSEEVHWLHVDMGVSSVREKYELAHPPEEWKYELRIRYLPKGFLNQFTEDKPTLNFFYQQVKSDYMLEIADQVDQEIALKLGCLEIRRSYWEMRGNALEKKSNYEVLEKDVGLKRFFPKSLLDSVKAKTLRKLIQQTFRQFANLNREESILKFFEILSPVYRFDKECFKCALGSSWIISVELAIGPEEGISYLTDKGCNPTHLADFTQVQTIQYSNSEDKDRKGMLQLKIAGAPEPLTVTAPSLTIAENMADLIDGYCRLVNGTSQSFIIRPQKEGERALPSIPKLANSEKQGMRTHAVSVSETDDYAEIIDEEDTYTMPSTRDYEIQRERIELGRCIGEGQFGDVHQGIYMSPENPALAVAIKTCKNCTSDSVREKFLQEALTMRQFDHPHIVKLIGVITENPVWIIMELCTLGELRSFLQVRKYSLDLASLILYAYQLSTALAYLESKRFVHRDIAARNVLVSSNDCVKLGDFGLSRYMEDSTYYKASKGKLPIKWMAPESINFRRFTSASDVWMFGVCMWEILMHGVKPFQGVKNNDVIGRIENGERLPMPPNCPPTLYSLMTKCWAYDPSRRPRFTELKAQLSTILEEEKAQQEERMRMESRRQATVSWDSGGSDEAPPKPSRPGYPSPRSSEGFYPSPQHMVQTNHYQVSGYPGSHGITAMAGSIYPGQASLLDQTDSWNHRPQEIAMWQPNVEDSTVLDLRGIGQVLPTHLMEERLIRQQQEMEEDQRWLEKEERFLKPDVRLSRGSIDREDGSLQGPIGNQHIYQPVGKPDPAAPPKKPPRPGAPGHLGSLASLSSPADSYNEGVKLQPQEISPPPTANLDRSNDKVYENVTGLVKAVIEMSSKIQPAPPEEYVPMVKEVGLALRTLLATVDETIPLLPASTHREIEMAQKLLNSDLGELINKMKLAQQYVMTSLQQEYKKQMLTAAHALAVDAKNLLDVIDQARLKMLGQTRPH
T3 sequence (Q14289 whole entry): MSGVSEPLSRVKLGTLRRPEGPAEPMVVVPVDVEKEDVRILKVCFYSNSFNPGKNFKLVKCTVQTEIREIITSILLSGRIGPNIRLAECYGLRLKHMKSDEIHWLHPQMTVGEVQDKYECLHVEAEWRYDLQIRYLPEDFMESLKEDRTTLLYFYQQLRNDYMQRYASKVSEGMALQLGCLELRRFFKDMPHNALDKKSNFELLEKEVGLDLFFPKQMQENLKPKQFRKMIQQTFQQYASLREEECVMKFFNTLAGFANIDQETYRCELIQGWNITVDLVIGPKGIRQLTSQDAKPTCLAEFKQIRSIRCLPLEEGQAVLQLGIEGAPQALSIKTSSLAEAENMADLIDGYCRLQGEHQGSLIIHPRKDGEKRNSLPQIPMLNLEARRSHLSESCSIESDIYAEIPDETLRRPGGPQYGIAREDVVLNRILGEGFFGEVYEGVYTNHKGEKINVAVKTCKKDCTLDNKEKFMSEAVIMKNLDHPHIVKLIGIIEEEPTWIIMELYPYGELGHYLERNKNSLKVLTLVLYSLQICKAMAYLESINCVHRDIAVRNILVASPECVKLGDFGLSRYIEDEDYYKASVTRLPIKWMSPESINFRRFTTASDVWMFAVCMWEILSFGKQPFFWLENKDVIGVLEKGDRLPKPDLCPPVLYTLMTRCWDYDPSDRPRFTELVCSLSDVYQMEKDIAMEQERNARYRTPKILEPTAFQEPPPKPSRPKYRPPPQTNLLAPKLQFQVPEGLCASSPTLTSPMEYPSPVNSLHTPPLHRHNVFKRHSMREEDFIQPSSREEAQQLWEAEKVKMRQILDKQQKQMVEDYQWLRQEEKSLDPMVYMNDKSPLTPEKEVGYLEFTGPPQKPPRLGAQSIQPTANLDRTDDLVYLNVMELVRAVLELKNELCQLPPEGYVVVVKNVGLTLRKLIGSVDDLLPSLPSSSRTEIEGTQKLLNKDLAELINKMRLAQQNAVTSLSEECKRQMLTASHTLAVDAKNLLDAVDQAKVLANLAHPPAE
Sequence of Protein cereblon/Focal adhesion kinase 1 (Q05397 whole entry): as the sequence (Q05397 whole entry, the tested form may be a part) above
Sequence of Protein cereblon/Focal adhesion kinase 1 (Q96SW2 whole entry): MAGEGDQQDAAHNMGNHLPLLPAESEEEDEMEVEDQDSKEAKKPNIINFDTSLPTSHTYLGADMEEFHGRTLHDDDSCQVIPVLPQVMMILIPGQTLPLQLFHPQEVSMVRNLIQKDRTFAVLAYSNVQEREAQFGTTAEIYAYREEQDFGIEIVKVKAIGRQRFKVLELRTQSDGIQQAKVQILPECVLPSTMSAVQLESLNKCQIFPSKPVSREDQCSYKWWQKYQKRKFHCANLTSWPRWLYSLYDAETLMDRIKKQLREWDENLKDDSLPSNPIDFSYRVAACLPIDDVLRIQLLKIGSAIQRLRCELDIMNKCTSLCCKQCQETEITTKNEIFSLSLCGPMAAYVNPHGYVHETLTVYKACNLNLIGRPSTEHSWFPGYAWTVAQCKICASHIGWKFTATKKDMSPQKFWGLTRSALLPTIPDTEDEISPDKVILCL
Sequence of ALK tyrosine kinase receptor (Q9UM73 whole entry): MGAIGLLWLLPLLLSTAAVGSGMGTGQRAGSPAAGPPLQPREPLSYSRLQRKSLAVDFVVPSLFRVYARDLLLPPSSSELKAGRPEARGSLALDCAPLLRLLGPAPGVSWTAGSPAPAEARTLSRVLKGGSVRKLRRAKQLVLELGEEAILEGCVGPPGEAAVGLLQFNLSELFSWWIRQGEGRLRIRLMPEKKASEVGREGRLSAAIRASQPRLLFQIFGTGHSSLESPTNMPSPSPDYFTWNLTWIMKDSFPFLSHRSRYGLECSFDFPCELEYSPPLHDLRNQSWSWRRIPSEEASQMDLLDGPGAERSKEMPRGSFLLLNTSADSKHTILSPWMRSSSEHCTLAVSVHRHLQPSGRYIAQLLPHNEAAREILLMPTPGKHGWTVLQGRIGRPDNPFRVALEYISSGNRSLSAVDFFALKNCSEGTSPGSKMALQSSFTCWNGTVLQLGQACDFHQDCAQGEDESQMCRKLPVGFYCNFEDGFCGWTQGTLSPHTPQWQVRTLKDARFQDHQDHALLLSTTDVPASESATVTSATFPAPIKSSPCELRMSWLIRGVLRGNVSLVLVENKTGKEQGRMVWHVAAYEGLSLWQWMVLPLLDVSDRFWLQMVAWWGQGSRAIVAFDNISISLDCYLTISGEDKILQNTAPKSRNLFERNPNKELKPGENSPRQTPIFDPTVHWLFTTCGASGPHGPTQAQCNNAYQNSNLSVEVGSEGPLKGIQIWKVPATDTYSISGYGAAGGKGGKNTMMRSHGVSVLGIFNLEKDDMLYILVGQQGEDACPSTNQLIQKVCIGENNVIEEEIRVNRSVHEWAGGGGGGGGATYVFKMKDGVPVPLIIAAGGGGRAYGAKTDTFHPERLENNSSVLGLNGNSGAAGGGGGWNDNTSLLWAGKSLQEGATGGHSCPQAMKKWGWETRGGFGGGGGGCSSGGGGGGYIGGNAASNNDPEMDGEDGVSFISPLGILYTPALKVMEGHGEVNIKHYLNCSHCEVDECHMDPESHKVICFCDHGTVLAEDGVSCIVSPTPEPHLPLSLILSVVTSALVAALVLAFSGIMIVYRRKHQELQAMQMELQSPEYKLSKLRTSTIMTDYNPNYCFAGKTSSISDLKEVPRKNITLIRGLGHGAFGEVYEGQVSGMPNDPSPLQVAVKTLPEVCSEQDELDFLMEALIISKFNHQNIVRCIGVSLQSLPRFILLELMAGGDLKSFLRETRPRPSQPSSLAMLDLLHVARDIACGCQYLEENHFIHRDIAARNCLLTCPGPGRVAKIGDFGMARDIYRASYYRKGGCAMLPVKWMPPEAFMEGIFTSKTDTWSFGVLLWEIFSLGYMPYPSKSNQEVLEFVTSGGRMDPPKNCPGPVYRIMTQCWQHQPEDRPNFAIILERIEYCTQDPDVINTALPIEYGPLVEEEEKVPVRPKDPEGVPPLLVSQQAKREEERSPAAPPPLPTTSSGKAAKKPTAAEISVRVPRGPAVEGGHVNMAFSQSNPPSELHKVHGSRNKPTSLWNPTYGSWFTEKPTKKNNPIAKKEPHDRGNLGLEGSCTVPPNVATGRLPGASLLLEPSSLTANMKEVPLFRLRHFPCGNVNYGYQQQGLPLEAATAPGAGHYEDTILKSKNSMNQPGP
Sequence of Serine/threonine-protein kinase PLK1 (P53350 whole entry): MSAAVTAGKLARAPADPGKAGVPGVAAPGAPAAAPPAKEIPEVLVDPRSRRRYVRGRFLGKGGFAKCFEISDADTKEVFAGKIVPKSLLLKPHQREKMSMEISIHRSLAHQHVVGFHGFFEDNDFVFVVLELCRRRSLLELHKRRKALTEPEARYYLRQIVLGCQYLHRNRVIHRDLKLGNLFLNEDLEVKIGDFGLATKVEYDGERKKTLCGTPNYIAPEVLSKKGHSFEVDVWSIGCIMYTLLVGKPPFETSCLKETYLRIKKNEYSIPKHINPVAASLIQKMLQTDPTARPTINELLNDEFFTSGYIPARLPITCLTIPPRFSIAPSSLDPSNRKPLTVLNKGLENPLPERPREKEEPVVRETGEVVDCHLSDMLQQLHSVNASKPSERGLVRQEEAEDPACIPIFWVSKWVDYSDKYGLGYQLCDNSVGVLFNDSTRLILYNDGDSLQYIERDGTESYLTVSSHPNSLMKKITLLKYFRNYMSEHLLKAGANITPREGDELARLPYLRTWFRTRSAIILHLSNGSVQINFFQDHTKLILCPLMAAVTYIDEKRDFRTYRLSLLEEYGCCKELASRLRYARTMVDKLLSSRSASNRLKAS

Molecule `CNC(=O)c1ccccc1Nc1ncnc(Nc2cc(OC)c(OC)c(OC)c2)n1` has an IC50 [1] of 0.37 µM.

Molecule `OCC[N+]12CN3CN(CN(C3)C1)C2` has a pIC50 (Focal adhesion kinase 1 [2]) of 7.30.

With `Cc1ncsc1-c1ccc(CNC(=O)[C@@H]2C[C@@H](O)CN2C(=O)[C@@H](NC(=O)CCOCCOc2ccc(Nc3ncc(C(F)(F)F)c(NCc4cccc(N(C)S(C)(=O)=O)c4)n3)cc2)C(C)(C)C)cc1` the DC50 [3] was 3 nM.

`CNC(=O)c1ccccc1Nc1cc(Nc2cc(C)c(C3CCN(CCCCCCNC(=O)COc4cccc5c4C(=O)N(C4CCC(=O)NC4=O)C5=O)CC3)cc2OC(C)C)ncc1C(F)(F)F` (stereo not drawn) gave a pIC50 (Focal adhesion kinase 1 [4]) of 7.59.

For `C=CC(=O)NCCNc1c(NCc2ccc(Nc3ncc(Cl)c(Nc4ccccc4C(=O)NC)n3)cc2)c(=O)c1=O`, the bioavailability [5] was 21%.

Work on `CNC(=O)c1ccccc1Nc1nc(Nc2ccc(NC(=O)CN3CCOCC3)c(C)c2)ncc1Cl` yielded a pIC50 (Focal adhesion kinase 1 [6]) of 8.99 and a pIC50 [7] of 8.41.

In the case of `CNC(=O)c1ccccc1Nc1cc(Nc2ccc(N3CCN(CC(=O)N[C@H](C(=O)N4C[C@H](O)C[C@H]4C(=O)N[C@@H](C)c4ccc(-c5scnc5C)cc4)C(C)(C)C)CC3)cc2OC)ncc1C(F)(F)F`, the pIC50 (Focal adhesion kinase 1 [8]) was 8.80.

With `CN(c1ncccc1CNc1nc(Nc2ccc(N3CCN(CCCCCCC(=O)NCCNc4cccc5c4C(=O)N(C4CCC(=O)NC4=O)C5=O)CC3)cc2)ncc1C(F)(F)F)S(C)(=O)=O` (stereo not drawn) the half-life [9] was > 195 min.

Work on `O=C(CSC1Nc2ccccc2C(=O)N1c1ccccc1)N1CCN(c2ccccc2Cl)CC1` (stereo not drawn) yielded a pIC50 (Focal adhesion kinase 1 [4]) of 7.07 and a pIC50 [10] of 7.10.

`CNC(=O)c1ccccc1Nc1cc(Nc2ccc(NC(=O)CCCCCCC(=O)NO)cc2)ncc1Cl` gave a pIC50 (Focal adhesion kinase 1 [11]) of 6.88 and a pIC50 [12] of 7.80.

With `Cn1cc(-c2nn3cc(-c4ccco4)nc3s2)c2ccccc21` the pIC50 (BXPC-3) was 5.98.

`CNC(=O)c1ccccc1Nc1cc(Nc2cc(C)c(C3CCNCC3)cc2OC(C)C)ncc1C(F)(F)F` gave a pIC50 [13] of 6.21.

With `CNC(=O)c1ccccc1Nc1nc(Nc2ccc(N3CCN(C)CC3)cc2)nc2[nH]ccc12` the pIC50 (Focal adhesion kinase 1 [4]) was 7.72.

Molecule `Clc1cccc(Cn2ccc3cnc(Nc4ccc(N5CCNCC5)cc4)nc32)c1` has a pIC50 (Focal adhesion kinase 1 [14]) of 8.00.

With `O=C1CCc2cccc(Oc3nc(Nc4ccc(N5CCN(C(=S)SCCCN6CCOCC6)CC5)cc4)ncc3C(F)(F)F)c21` the pIC50 (Focal adhesion kinase 1 [4]) was 7.35.

Molecule `Cc1cc(Nc2ncc(Cl)c(Nc3ccccc3S(=O)(=O)C(C)C)n2)c(OC(C)C)cc1C1=CCN(C2CCOCC2)CC1` [APG-2449] has a pIC50 (Focal adhesion kinase 1 [4]) of 8.27, a pIC50 [15] of 8.80 and a pIC50 [16] of 9.09.

In the case of `CNC(=O)c1ccc(Nc2ncc(C(F)(F)F)c(NCc3nccnc3N(C)S(C)(=O)=O)n2)cc1` [DEFACTINIB], the pIC50 [17] was 9.22.

`CONC(=O)c1ccccc1Nc1cc(Nc2cc(C)nn2C(C)C)ncc1Cl` [GSK-2256098] gave a pKi (Focal adhesion kinase 1 [18]) of 9.40.
